Measurements from ChEMBL document CHEMBL1201862, “PubChem BioAssay data set” (2004).
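Five concentrations, 48 hours, 96-well plates. GI50: concentration for 50% inhibition of growth.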 Calls of active or inactive are those of the source. Cut-off read from the data, not from the text of the source: active = GI50 up to about 1.1 µM and inactive = higher.

Tests used:
Experiment in all cases: growth of human tumour cells (NCI), 48 h
SF-268 = system: SF-268
BT-549 = system: BT-549
UACC-62 = system: UACC-62
OVCAR-5 = system: OVCAR-5
MCF7 = system: MCF7
Hs-578T = system: Hs-578T
SNB-19 = system: SNB-19
ACHN = system: ACHN
MOLT-4 = system: MOLT-4
SNB-75 = system: SNB-75
A549 = system: A549
HOP-62 = system: HOP-62
NCI/ADR-RES = system: NCI/ADR-RES
K562 = system: K562
HL-60 = system: HL-60
HCT-116 = system: HCT-116
SF-295 = system: SF-295
NCI-H522 = system: NCI-H522
NCI-H23 = system: NCI-H23
MDA-MB-435 = system: MDA-MB-435

Measured: GI50

Cc1ccc([N+](=O)[O-])c2c(NCCNC(=O)c3cc(C(=O)NCCNc4ccnc5c(C)ccc([N+](=O)[O-])c45)n(C)n3)ccnc12
inactive: SF-268 > 100 µM | BT-549 > 100 µM | UACC-62 > 47.4 µM | OVCAR-5 > 84.9 µM | MCF7 > 21.5 µM | Hs-578T > 87.3 µM | SNB-19 > 100 µM | ACHN > 100 µM | MOLT-4 31.7 µM | SNB-75 45.2 µM | A549 > 57.1 µM | HOP-62 > 60 µM | NCI/ADR-RES > 100 µM | K562 40.5 µM | HL-60 53.6 µM | HCT-116 > 100 µM | SF-295 > 79.6 µM | NCI-H522 > 67.3 µM | NCI-H23 > 84.9 µM | MDA-MB-435 > 41.6 µM

Cc1cc2nc(N)n[n+]([O-])c2cc1C
inactive: SF-268 > 100 µM | BT-549 > 100 µM | UACC-62 > 100 µM | OVCAR-5 > 100 µM | MCF7 > 100 µM | Hs-578T > 100 µM | SNB-19 > 100 µM | ACHN > 100 µM | MOLT-4 > 100 µM | SNB-75 > 10 µM | A549 > 100 µM | HOP-62 > 100 µM | NCI/ADR-RES > 100 µM | K562 > 100 µM | HL-60 > 100 µM | HCT-116 > 100 µM | SF-295 > 100 µM | NCI-H522 > 100 µM | NCI-H23 > 100 µM | MDA-MB-435 > 100 µM

CCOC(=O)CSc1nnc2cc(CN3CCCC3)c(-c3ccc(Cl)cc3)nn12
inactive: SF-268 > 100 µM | BT-549 > 100 µM | UACC-62 > 100 µM | OVCAR-5 > 100 µM | MCF7 46.9 µM | Hs-578T > 100 µM | SNB-19 > 100 µM | ACHN > 100 µM | MOLT-4 38.5 µM | SNB-75 85.5 µM | A549 > 100 µM | HOP-62 > 100 µM | NCI/ADR-RES > 100 µM | K562 83.8 µM | HL-60 89.3 µM | HCT-116 > 100 µM | SF-295 > 100 µM | NCI-H522 39.7 µM | NCI-H23 > 100 µM | MDA-MB-435 72.9 µM

Cn1c(C(C)(C)OC(=O)Oc2ccccc2)cnc1[N+](=O)[O-]
inactive: SF-268 > 100 µM | BT-549 > 100 µM | UACC-62 55.6 µM | OVCAR-5 > 100 µM | MCF7 63 µM | Hs-578T > 100 µM | SNB-19 > 100 µM | ACHN > 100 µM | MOLT-4 16.7 µM | SNB-75 > 100 µM | A549 > 100 µM | HOP-62 > 100 µM | NCI/ADR-RES > 100 µM | K562 59.2 µM | HL-60 36.5 µM | HCT-116 92.5 µM | SF-295 > 100 µM | NCI-H522 70.8 µM | NCI-H23 > 100 µM | MDA-MB-435 > 100 µM

O=C1CSC(c2cccc(Oc3ccccc3)c2)N1c1cccc(Cl)c1Cl (stereo not given)
inactive: SF-268 23.6 µM | BT-549 19.9 µM | UACC-62 17.8 µM | OVCAR-5 33.5 µM | MCF7 13.7 µM | Hs-578T 27.8 µM | SNB-19 42.8 µM | ACHN 20.7 µM | MOLT-4 22.5 µM | SNB-75 41 µM | A549 > 100 µM | HOP-62 41.4 µM | NCI/ADR-RES 21.9 µM | K562 20.4 µM | HL-60 22.7 µM | HCT-116 21.2 µM | SF-295 39.5 µM | NCI-H522 20.7 µM | NCI-H23 27.5 µM | MDA-MB-435 13.7 µM

COC(=O)Nc1nc2cc(NS(=O)(=O)c3cccs3)ccc2[nH]1
inactive: SF-268 38.3 µM | BT-549 71.8 µM | UACC-62 17 µM | OVCAR-5 37.2 µM | MCF7 17.8 µM | Hs-578T 10.4 µM | SNB-19 23.2 µM | ACHN 42.8 µM | MOLT-4 13.6 µM | SNB-75 20.7 µM | A549 43.9 µM | HOP-62 26.4 µM | NCI/ADR-RES 25.1 µM | K562 5.53 µM | HL-60 23 µM | HCT-116 18.4 µM | SF-295 24.9 µM | NCI-H522 6.55 µM | NCI-H23 30.5 µM | MDA-MB-435 3.62 µM

COc1ccc(/C=C/C(=O)c2ccc(OC(=O)/C=C/c3ccccc3)cc2)cc1
inactive: SF-268 25 µM | BT-549 14.9 µM | UACC-62 22.7 µM | OVCAR-5 > 85.7 µM | MCF7 23.6 µM | Hs-578T 36 µM | SNB-19 21.8 µM | ACHN 34.6 µM | MOLT-4 16.6 µM | SNB-75 28.9 µM | A549 29.5 µM | HOP-62 61.1 µM | NCI/ADR-RES 31.2 µM | K562 5.93 µM | HL-60 4.08 µM | HCT-116 18.7 µM | SF-295 25.1 µM | NCI-H522 19.3 µM | NCI-H23 21 µM | MDA-MB-435 7.73 µM

Brc1ccc2c(-c3nc(-c4c[nH]c5ccccc45)cs3)c[nH]c2c1
inactive: SF-268 > 56.8 µM | BT-549 34.8 µM | UACC-62 27.5 µM | OVCAR-5 31.9 µM | MCF7 28.8 µM | Hs-578T > 100 µM | SNB-19 41.9 µM | ACHN 43.1 µM | MOLT-4 26.7 µM | SNB-75 37.4 µM | A549 9.59 µM | HOP-62 > 45.8 µM | NCI/ADR-RES 27 µM | K562 13.1 µM | HL-60 63 µM | HCT-116 23.8 µM | SF-295 20.3 µM | NCI-H522 48 µM | NCI-H23 24.9 µM | MDA-MB-435 34.6 µM

C=CCNC1=C2C[C@@H](C)C[C@@H](OC)[C@@H](OC(=O)CCCN)[C@H](C)/C=C(\C)[C@@H](OC(N)=O)[C@H](OC)/C=C\C=C(/C)C(=O)NC(=CC1=O)C2=O
inactive: SF-268 13.2 µM | BT-549 8.99 µM | UACC-62 15.2 µM | OVCAR-5 16 µM | MCF7 6.98 µM | Hs-578T 20.9 µM | SNB-19 15.8 µM | ACHN 18.8 µM | MOLT-4 14 µM | SNB-75 10.4 µM | A549 15.7 µM | HOP-62 6.24 µM | NCI/ADR-RES > 100 µM | K562 9.16 µM | HL-60 4.43 µM | HCT-116 15.7 µM | SF-295 15.9 µM | NCI-H522 6.82 µM | NCI-H23 13.9 µM | MDA-MB-435 20.3 µM

COC(=O)c1cc(C)ccc1/C=C1\Cc2c(C)cc(C)cc2C1=O
inactive: SF-268 15.3 µM | BT-549 36.5 µM | UACC-62 6.59 µM | OVCAR-5 > 43.9 µM | MCF7 > 100 µM | Hs-578T 14 µM | SNB-19 15.7 µM | ACHN 60.7 µM | MOLT-4 > 100 µM | SNB-75 16.2 µM | A549 99.3 µM | HOP-62 11.9 µM | NCI/ADR-RES 64.3 µM | K562 > 100 µM | HL-60 21.9 µM | HCT-116 8.41 µM | SF-295 3.61 µM | NCI-H522 21.3 µM | NCI-H23 14.5 µM | MDA-MB-435 59 µM
